Here are results for 1 sequence from patent US20240148820A1 (priority 2021, published 2024).

Where no end group is shown, it is not given here.

This assay concerns the target S protein of SARS-CoV-2 (Severe acute respiratory syndrome coronavirus 2, UniProt P0DTC2). Format: binding.

For IPLRGAFINGRWDSQCHRFS [U5], the “effect of U5 on P9R binding to S protein” value is reported as “not P9R binding to S protein”.
